Among the data in BindingDB's records for doi:10.1016/j.bmc.2006.03.042 (F. Hoffmann-La Roche, 2006) are Ki values, retold here.

What all share (test): Serine Protease Inhibition Assay
The target of test [1] is Prothrombin (Homo sapiens, UniProt P00734). To be noted: pH 7.8; 22 °C. As for the experimental part:
(§1) The enzyme reactions were initiated by the addition of substrate, and the color developed from the release of p-nitroanilide from each chromogenic substrate was monitored continuously for 5 min at 405 nm on a microtiter plate reader. […] The apparent Ki values were then calculated according to the Cheng-Prusoff equation: Ki = IC50/1 + [S]/Km.

Test [2] addresses T1, Coagulation factor VII (Homo sapiens, UniProt P08709).
T1 sequence (P08709 whole entry): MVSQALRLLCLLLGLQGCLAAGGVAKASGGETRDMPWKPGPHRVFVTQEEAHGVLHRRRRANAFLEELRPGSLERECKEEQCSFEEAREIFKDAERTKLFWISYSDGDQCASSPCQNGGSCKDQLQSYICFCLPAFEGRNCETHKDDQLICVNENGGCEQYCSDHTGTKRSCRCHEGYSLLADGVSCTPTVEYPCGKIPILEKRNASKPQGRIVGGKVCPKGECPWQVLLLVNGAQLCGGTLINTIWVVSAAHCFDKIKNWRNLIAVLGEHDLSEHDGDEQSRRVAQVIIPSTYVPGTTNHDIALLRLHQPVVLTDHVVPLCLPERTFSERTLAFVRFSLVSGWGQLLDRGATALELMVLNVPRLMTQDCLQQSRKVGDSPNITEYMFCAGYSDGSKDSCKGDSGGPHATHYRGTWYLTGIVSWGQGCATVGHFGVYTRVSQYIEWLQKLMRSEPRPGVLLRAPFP
To be noted: pH 7.8; 22 °C. As for the experimental part: as §1

Test [3] has as its target Coagulation factor X (Homo sapiens, UniProt P00742). As for the experimental part:
as §1

Test [4] concerns the target T2, Serine protease 1 (Bos taurus, UniProt P00760).
T2 sequence (P00760 whole entry): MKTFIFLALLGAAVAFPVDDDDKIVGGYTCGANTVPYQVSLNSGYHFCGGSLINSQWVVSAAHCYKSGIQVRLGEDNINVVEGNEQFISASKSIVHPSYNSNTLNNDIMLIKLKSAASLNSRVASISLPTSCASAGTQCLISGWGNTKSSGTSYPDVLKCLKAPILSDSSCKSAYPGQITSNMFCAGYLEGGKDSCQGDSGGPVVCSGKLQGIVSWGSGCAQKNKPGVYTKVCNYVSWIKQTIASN
The procedure: as §1

The structures appear in SMILES notation. pKi: −log10 of the molar value.

Usually pKi stands for the negative decadic logarithm of the Ki, by convention in mol/L. High values mean a low Ki, low ones a high Ki.

Coagulation factor X, sequence (P00742 41-179 limits assumed): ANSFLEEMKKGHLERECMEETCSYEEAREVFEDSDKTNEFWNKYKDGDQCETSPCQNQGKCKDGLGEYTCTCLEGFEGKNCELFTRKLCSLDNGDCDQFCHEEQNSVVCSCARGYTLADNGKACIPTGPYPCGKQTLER
Coagulation factor X, sequence (P00742 235-488 limits assumed): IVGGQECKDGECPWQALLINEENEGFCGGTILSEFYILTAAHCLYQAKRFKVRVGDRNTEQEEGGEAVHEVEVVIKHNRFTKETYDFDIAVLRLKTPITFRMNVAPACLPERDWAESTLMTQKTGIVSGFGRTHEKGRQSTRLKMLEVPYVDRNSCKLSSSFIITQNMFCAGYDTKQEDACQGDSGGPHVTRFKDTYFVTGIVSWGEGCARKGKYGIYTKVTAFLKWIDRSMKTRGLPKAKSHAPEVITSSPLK

For `CCOc1cc(OCC)c(F)c(C(Nc2ccc(C(=N)N)cc2)C(=O)O)c1` (racemic) [2-[(4-carbamimidoylphenyl)amino]-2-(3,5-diethoxy-2-fluorophenyl)acetic acid], the pKi is 5.06 in test [1], 6.70 in test [2], 5.52 in test [3] and 5.17 in test [4].
As to `CCOc1cc(OCC)cc(C(Nc2ccc(C(=N)N)cc2)C(=O)O)c1` (stereo not given) [2-[(4-carbamimidoylphenyl)amino]-2-(3,5-diethoxyphenyl)acetic acid], the pKi in test [1] is < 4.46.
For `CCOc1cc(O[C@@H]2CCOC2)c(F)c([C@@H](Nc2ccc(C(=N)N)cc2)C(=O)O)c1` [2-[(4-carbamimidoylphenyl)amino]-2-[5-ethoxy-2-fluoro-3-(oxolan-3-yloxy)phenyl]acetic acid], the pKi is 5.15 in test [1], 7.06 in test [2], 5.92 in test [3] and 5.51 in test [4].
With `COc1ccc(-c2ccc(C(=O)N[C@H](CO)C(C)(C)C)cc2C(=O)O)c(C(=O)Nc2ccc(C(=N)N)cc2)n1` [2-{2-[(4-carbamimidoylphenyl)carbamoyl]-6-methoxypyridin-3-yl}-5-{[(2S)-1-hydroxy-3,3-dimethylbutan-2-yl]carbamoyl}benzoic acid], the pKi was 5.37 in test [1], 8.00 in test [2], 6.82 in test [3] and 6.62 in test [4].
In the case of `CCOc1cc(O[C@@H]2CCOC2)c(F)c([C@@H](Nc2ccc(C(=N)N)cc2)C(=O)O)c1` [(2R)-2-[(4-carbamimidoylphenyl)amino]-2-{5-ethoxy-2-fluoro-3-[(3R)-oxolan-3-yloxy]phenyl}acetic acid], the pKi in test [1] was 5.35; in test [2], 7.09; in test [3], 5.72; in test [4] it was 5.49.
As for `CCOc1cc(OC2CCOC2)cc(C(Nc2ccc(C(=N)N)cc2)C(=O)O)c1` (stereo not given) [(4-Carbamimidoyl-phenylamino)-[3-ethoxy-5-(tetra-hydrofuran-3-yloxy)-phenyl]-acetic acid], the pKi is 4.97 in test [1], 5.54 in test [3] and < 5.17 in test [4].
